From patent publication US9205135B2, “Podocyte pH modulation and uses thereof” (University of Miami, priority 2009, dated 2015)

What was measured:
podocytes [1] = assay: Glutamine uptake rate in cultured podocytes; type: cell-based, mouse; conditions: injury stimulus
Text: A podocyte metabolic model was constructed based on available databases as well as mRNA and protein expression data extracted from podocytes. The following podocyte culture models were employed: wildtype (control), LPS and PAN stimulated podocytes (inducible injury models) as well as podocytes with genetic deletion of the alpha3 gene (genetic disease model). All injury cultures increase the uptake of glutamine as well as gluconeogenic aminoacids. In addition, there is increasing ammonia production in diseased podocytes. These changes were predicted by the podocyte metabolic model and confirmed by measuring directly amino acids and ammonia (FIGS. 1A-1D).
Metabolic Flux Analysis emphasizes glutamine utilization pathways for podocyte function: We utilized cultured normal podocytes (control) (15) and three in vitro models for podocyte damage: i) podocytes with α3 integrin deletion (genetic model) (16); ii) podocytes treated with lipopolysaccharides (LPS, immunological model) (17); and iii) podocytes treated with puromycin aminonucleoside (PAN, toxic model) (18). […] Using the podocyte MFA network, we were able to extract podocyte aminoacid and glucose utilization (FIG. 10b-d) that was also independently measured in direct validation studies (data not shown). All analyzed modeling and experimentation data supported the notion that the aminoacid metabolism of podocytes is changed in disease. […]

SNAT3 [2] = assay: RT-PCR expression of SNAT glutamine transporters in mouse glomeruli; type: in vivo; conditions: glomeruli of mice stimulated with LPS
Text: Podocytes induce expression of SNAT glutamine transporters during injury: Having identified increased glutamine uptake and utilization as a signature for diseased podocytes that varies from other non-differentiated eukaryotic cells (FIG. 7), we studied the expression of the expression of system A (SNAT1, 2, 4) and system N(SNAT3, 5, 6) family members of sodium-coupled neutral amino acid transporters in cultured podocytes (FIG. 2a). Glutamine is known to be a favored substrate throughout the family, except for SNAT4 (21). We also studied these transporters in isolated mouse glomeruli (FIG. 2a). All SNATs were expressed besides SNAT5, 3 and 4 were only found at low levels. […] SNAT3, formerly known as SN1 (Slc38a3), is known as an antiporter that function in the presence of Na+ and takes up glutamine for the exchange of H+. It is highly expressed on the mRNA and protein level in the kidney during metabolic acidosis and involved in the regulation of acid-base homeostasis (22-24).
(§1) RT-PCR: We isolated total RNA from murine cultured podocytes and mouse glomeruli using the Trizol reagent (Invitrogen) according to the manufacturer's instructions. cDNA synthesis was performed with SuperScript II Reverse Transcriptase (Invitrogen) using Oligo(dT)12-18 oligonucleotide primers according to the manufacturer's instructions. All samples were run in duplicates.

NIH 3T3 = assay: Glutamine uptake rate in NIH 3T3 cells; type: cell-based
Description: (§2) All together, these experiments discovered a uniform metabolic response for podocytes that are injured.
(§3) Cells, antibodies, and standard techniques: Mouse podocyte cell lines (15) and HEK 293 cells (6) were grown as described previously. NIH 3T3 cells were cultured in Dulbecco's modified Eagle's minimal essential medium (Invitrogen, Carlsbad, Calif.) supplemented with 10% fetal calf serum (Invitrogen) and incubated in a humidified atmosphere of 95% air and 5% CO2 at 37° C. Antibody used for immunostaining are Alexa Fluor 594 phalloidin (Molecular Probes, Eugene, Oreg.). Subcellular fractionation was performed as described previously (6).

SNAT3 [3] = assay: RT-PCR expression of SNAT glutamine transporters in cultured podocytes; type: cell-based, mouse
Description: In brief, total RNA from cultured mouse podocytes was isolated with RNA isolation kit (Qiagen, Germantown, Md.) and the amount of RNA was measured by spectrophotometry. Purified RNA was reverse transcribed and PCR performed using PCR Mastercycler (Eppendorf, Westbury, N.Y.).
as §1

cathepsin L = assay: Cathepsin L activity in cultured podocytes, CV-(FR)2 substrate; type: cell-based, mouse; conditions: effect of the injury stimulus itself
Description: Subcellular sites of cathepsin L and cathepsin B activity in glomerular extracts were visualized by a fluorogenic substrate, CV-(FR)2, which emits light upon cleavage by cathepsin L or cathepsin B (Biomol).
Measurement of cathepsin L activity: Cathepsin L activities in cultured podocytes and in glomeruli was measured using CV-CatL detection kit (Biomol, Plymouth Meeting, Pa.) as described in the manufacturer's instructions. The fluorophore cresyl violet [CV-(FR)2] substrate becomes florescent after Cat L cleavage of the attached Phe-Arg groups. This substrate easily penetrates the cell membrane and the membranes of the internal cellular organelles, enabling the detection of cathepsin activity within living podocytes.

HEK293 = assay: Glutamine uptake rate in HEK293 cells; type: cell-based
Description: as §2, §3

podocytes [4] = assay: Intracellular pH of podocytes by phosphorus NMR; type: cell-based, mouse; conditions: after 24 hours of LPS exposure; 7.0 under normal conditions
Description: Another example is using phosphorus NMR spectra for untreated and LPS-treated podocytes. Briefly, podocytes are cultured and treated with LPS. 8×10^7 to 1×10^8 cells are harvested and cultured in phosphate-free medium prior to assay. Phosphorous NMR spectra are acquired and analyzed using an iNMR software package. Intracellular pH (pHi) is calculated from the chemical shift difference (d) between the intracellular inorganic phosphate peak (Pi) and the primary phosphate of nucleoside phosphates (Pa) using equation 1.
Measurement of intracellular pH by NMR: Eighty to hundred million podocyte cells were harvested and resuspended in 2-2.5 mL of phosphate-free RPMI medium (MP Biomedicals, Solon, Ohio) with 2.0 mM glutamine (Invitrogen) prior to assay. Phosphorous NMR spectra were acquired on a 14 Tesla Bruker Avance NMR spectrometer (Bruker BioSpin, Billerica, Mass.) with a 10 mm broadband observe (BBO) NMR probe. Cell suspensions were placed in 10 mm (OD) glass NMR tubes (Wilmad LabGlass, Buena, N.J.). Samples were maintained at a temperature of 37° C. […] Spectra were analyzed using the iNMR software package (Mestrelab Research, Spain). Intracellular pH (pHi) was calculated from the chemical shift difference (d) between the intracellular inorganic phosphate peak (Pi) and the primary phosphate of nucleoside phosphates (Pa) using Eq. 1: […]

lipopolysaccharides [LPS]
glutamine uptake rate (podocytes [1]): stimulated | SNAT3 mRNA expression (SNAT3 [2]): increased markedly | glutamine uptake rate (NIH 3T3): did not respond | SNAT3 mRNA expression (SNAT3 [3]): prominent induction | cathepsin L activity in podocytes (cathepsin L): stimulate | glutamine uptake rate (HEK293): did not respond | podocyte cytosolic pH (NMR) (podocytes [4]): 6.9
